Measured values as given in US20230165865A1, “HETEROARYLDIHYDROPYRIMIDINE DERIVATIVES AND METHODS OF TREATING HEPATITIS B INFECTIONS” (Janssen Pharmaceutica NV, priority 2018, published 2023).
Read-outs that look alike come from different tables or passages of the source.

Key:
CYP3A4 = experiment: In vitro assessment of CYP3A4 induction in cryopreserved human hepatocytes (mRNA level); type: in vitro ADME
Method: Preparation and Plating of Human Hepatocytes • 1. The cryopreserved human hepatocytes were thawed in 37° C. water bath and diluted by plating medium to a seeding density of 0.55×10^6 cells/mL. • 2. Transfer 100 μL to each well of collagen I coated 96-well plate. Place plate(s) in incubator and incubate at 37° C. for 4-6 hours. • 3. After incubation, observe cell morphology, agitate plate(s) to loosen debris, and replace medium. Place plate in incubator and incubate for 18 hours. Incubation with Test Compound(s) • 1. Prepare dilute test compound and positive control inducers with 37° C. prepared incubation medium to respective working concentrations (Table 11). Final concentration of DMSO in the treatment group will be 0.1%. Prepare 25 mM chlorpromazine in DMSO and dilute 1000-fold with incubation medium as a cytotoxicity control. • 2. Remove the Hepatocyte plate from the incubator. Observe cell morphology. Replace the medium in the appropriate wells with 125 μL of the toxicity controls, DMSO controls, inducers, or test article solutions, each in triplicate. • 3. After 24 hours and 48 hours, remove the Hepatocyte plate from the incubator and observe cell morphology. Renew the medium with test articles that freshly diluted from DMSO stocks. Return plate to the incubator. 4. mRNA Preparation and RT-PCR • 1. mRNA was prepared and measured using the Cells-to-Ct kit. Add DNase to Lysis solution. • 2. 15 μL of sample lysate was added to 35 µL of Reverse Transcription Master Mix (containing 2×RT Buffer, 20×RT Enzyme Mix and Nuclease-free Water) for a final 50 μL reaction volume. • 3. Separate PCR cocktails were prepared for CYP3A4; containing the CYP specific probe set and that of ACTB as the endogenous control gene. […] Reactions were analyzed on an Applied Biosystems Real Time PCR system (AB 7500). […] For mRNA level determination, the mRNA content in each well is expressed as 2^Ct(ACTB)-Ct(CYP). Fold of induction=mRNA(induced)/mRNA(vehicle) 3) The percent adjusted positive control is determined by: % of positive control=[(fold induction of test article)/(fold induction of positive control)]*100

[1] = Pharmacokinetic and tissue distribution study via intravenous and oral administration in male C57BL/6 mice; type: in vivo; conditions: for Kp / clearance / Cmax: male, C57BL/6, mouse; for Kp: liver and plasma, po; for Kp / Cmax / Liver AUCinf/Dose / Liver Cmax/Dose / PO AUCinf/Dose: PO; for clearance / IV AUCinf/Dose: IV, nominal 2 mg/kg; for clearance: read-out: IV Cl; for Cmax: dose per compound in table (5.28-9.95 mg/kg); for F: PO vs IV
Method: Male C57BL/6 mice with a weight range of 20-25 g (Hua Fu Kang, China) were used. Animals were fasted overnight and free access to food 4 hours after dosing.
Test compound (correction factor: 1.00) was dissolved in a 20% hydroxypropyl-β-cyclodextrin (HP-β-CD) at a final concentration of 1 mg/ml for the intravenous (IV) formulation and at final concentrations of 0.5 mg/ml for the oral (PO) formulation. The intravenous formulation was dosed at 2 ml/kg to obtain a dose of 2 mg/kg. The oral formulations were dosed at 10 ml/kg to obtain final doses of 5 mg/kg.
Blood samples were taken at 7 and 20 min, 1, 2, 4, 8 and 24 h after intravenous dose administration. Blood and liver samples were taken at 30 min, 1, 2, 4, 8, 12 and 24 h after oral dose administration.
(§1) Approximately 0.020 mL blood will be collected into BD blood collection tubes containing K3-EDTA at each time point. Samples were placed immediately on melting ice and plasma was obtained following centrifugation at 4° C. for 5 minutes at approximately 4000×g. Plasma samples were adjusted to pH 3-4 by phosphoric acid and stored at −75±15° C. prior to analysis. The whole process was completed within 1 hour.
Liver samples were collected at adopted time point, and the vial containing the tissues sample was snap-frozen in liquid nitrogen right away and kept at −75±15° C. prior to analysis. All liver samples were weighed and homogenized with phosphoric acid solution (pH to 3-4) by liver weight (g) to phosphoric acid solution volume (mL) ratio 1:4 before analysis.
Plasma and liver samples were analyzed using LC-MS/MS methods. The lower limit of quantification (LLOQ) for plasma was 1.0 ng/ml and for liver was 2.5 ng/g. A non-compartmental analysis using the “Linear up log down” rule was used for all data. A limited pharmacokinetic analysis was performed using Phoenix™ Professional (Version 6.1).

[2] = Pharmacokinetic study after intravenous and oral administration in male SD rats; type: in vivo; conditions: for clearance / Cmax: male, SD; for clearance / IV AUCinf/Dose: IV, nominal 2 mg/kg; for clearance: read-out: IV Cl; for Cmax / PO AUCinf/Dose: PO; for Cmax: nominal 5 mg/kg; for F: PO vs IV
Method: Male SD rats with a weight range of 250-300 g (Si Bei Fu Laboratory Animal Technology Co. Ltd, China) were used. Animals were fasted overnight and free access to food 4 hours after dosing.
Test compound (correction factor: 1.00) was dissolved in a 20% hydroxypropyl-β-cyclodextrin (HP-β-CD) at a final concentration of 1 mg/ml for the intravenous (IV) formulation and at final concentrations of 0.5 mg/ml for the oral (PO) formulation.
The intravenous formulation was dosed at 2 ml/kg to obtain a dose of 2 mg/kg. The oral formulations were dosed at 10 ml/kg to obtain final doses of 5 mg/kg.
Blood samples were taken at 5, 15 and 30 min, 1, 2, 4, 8 and 24 h after intravenous dose administration. Blood samples were taken at 15 and 30 min, 1, 2, 4, 8, 12 and 24 h after oral dose administration.
as §1, with “0.20” for “0.020”, “containing Sodium Fluoride (NaF), Potassium Oxalate (KoX) and” for “containing”
Plasma samples were analyzed using LC-MS/MS methods. The lower limit of quantification (LLOQ) for plasma was 1.0 ng/ml.
A non-compartmental analysis using the “Linear up log down” rule was used for all data. A limited pharmacokinetic analysis was performed using Phoenix™ Professional (Version 6.1). Results: See table 10 below for plasma PK results.

[3] = mice, read-out: AUCInf Ratio (Liver/Plasma)
[4] = mice, read-out: Cmax Ratio (Liver/Plasma)
[5] = rat plasma, comparing with reference 2

Compound | Kp [1, 3] | Kp [1, 4] | clearance ([1]; mice plasma) [mL/min/kg] | Cmax ([1]; mice plasma) [ng/mL] | Liver AUCinf/Dose ([1]; mice liver) [ng·kg·h/g/mg] | Liver Cmax/Dose ([1]; mice liver) [kg·ng/mg/mL] | IV AUCinf/Dose ([1]; mice plasma) [ng·kg·h/mg/mL] | PO AUCinf/Dose ([1]; mice plasma) [ng·kg·h/mg/mL] | F ([1]; mice) [%] | clearance ([2]; rat plasma) [mL/min/kg] | Cmax ([2]; rat plasma) [ng/mL] | IV AUCinf/Dose ([2]; rat plasma) [ng·kg·h/mg/mL] | PO AUCinf/Dose ([2]; rat plasma) [ng·kg·h/mg/mL] | F ([2]; rat) [%] | further results
CCOC(=O)C1=C(CN2CCN3C(=O)N(CC(C)(C)C(=O)O)C[C@@H]3C2)NC(c2nccs2)=N[C@H]1c1cccc(F)c1C [Reference 2, reference compound] | 15.9 | 12.2 | 49.1 | 733 | 2894 | 1676 | 345.2 | 181.5 | 52.7 | 65.6 | 332 | 254.9 | 129.7 | 50.8 | mRNA Percentage of positive control at 10 uM (CYP3A4; CYP3A4 mRNA, donor 1, 10 μM, positive control rifampicin): 20.50%; mRNA Fold induction (Mean ± SD) (CYP3A4; CYP3A4 mRNA, donor 1, 10 μM, vs vehicle): 5.05 ± 0.61
CCOC(=O)C1=C(CN2CCN3C(=S)N(CC(C)(C)C(=O)O)CC3C2)NC(c2nccs2)=N[C@H]1c1cccc(F)c1C (single isomer, unassigned) [Compound 1A] | 17.5 | 14 | 16.6 | 2350 | 13733 | 6225 | 1078.3 | 784.8 | 72.9 | 11.6 | 4060 | 1578.1 | 1780.7 | 113 | CYP induction effect, in words (CYP3A4; CYP3A4, comparing with reference 2): no CYP induction effect; dose-normalized Cmax and dose-normalized AUCinf in liver, in words ([1]; mice liver, comparing with reference 1 and reference 2): far increased; clearance, in words ([1]; mice plasma, comparing with reference 1 and reference 2): far slower clearance; bioavailability in plasma, in words ([1]; mice, comparing with reference 1 and reference 2): increased bioavailability; clearance, in words [2, 5]: far slower clearance; dose-normalized AUC (AUCinf/Dose), in words [2, 5]: over two-folds higher; bioavailability (F (%)), in words ([2]; rat, comparing with reference 2): increased (or equal) bioavailability
